Experimental data published in EP1953237A1, “A method for the production of short chained glycolipids” (ECOVER N.V., priority 2007, dated 2008).
Like-named read-outs stand apart in the source and are kept apart here.

Columns and labels:
[1] = to clarify 100 ml AD solution of 2.5 wt. % laureth sulphate and 10% NaOH
Protocol: In this example the amount of hydrotrope needed to clarify a 100 ml AD solution of 2.5 wt. % laureth sulphate and 10% NaOH.

[2] = system: M. furfur; test: Minimal inhibitory concentration, agar dilution with olive oil overlay; format: cell-based; conditions: 48 hours at 37°C, Sabouraud's dextrose agar with olive oil
Protocol: The yeast M. furfur is one of the natural causes of dandruff formation. Since it is a lipophilic yeast, the in vitro growth must be stimulated by natural oils or other fatty substances when determining minimal inhibitory concentrations (MIC). We used the most common method, which is to overlay Sabouraud's dextrose agar containing cycloheximide (actidione) with olive oil.
A dilution series (1, ½ ¼, 1/8, 1/16..) was prepared. One ml of this dilution was added to 3 petri dishes per concentration and mixed with the warm agar. After cooling a drop of the yeast culture suspension was dropped on the petri dish and left to grow for 48 hours at 37°C.
The MIC was determined for azelaic acid (pa VWR) neutralized with NaOH, azelaic mixture with SL9:0 (from ex.O.1) and calcium purified azelaic mixture with SL9:0. Whereas a 30% azelaic solution was needed for complete inhibition was needed, only 20% of the (SL9-azelaic) mixture of ex.O.1 was needed.

[3] = system: Candida bombicola; format: cell-based; conditions: for number of colony forming units: ester 30 g/l in total
Protocol: A one litre baffled shake flask was filled with 200 ml medium according to Lang and co-workers (2000) and inoculated with Candida bombicola and left to grow at 30°C and 200 rpm. After 48 h 10 g/l Dodecyl glutarate was added. On day 5, 6 and 7 another 7.5 , 5 and 7.5 g/l ester was added. On day 10 the fermentation was stopped. The number of colony forming units was somewhat lower compared to fermentations on rapeseed oil or glucose. […] The sophorolipid yield as gravimetrically determined amounted 26 g/l. The residual ester concentration was 13 g/l. Dodecyl glutarate is a solid which was difficult to dose and tended to agglomerate, thus limiting the availability to Candida and probably causing part of the residual substrate. […] These peaks were identified by RP-HPLC-MS (Waters ZQ) using quadrupole electrospray negative ion detection (see figure 1). […] Both the lactonic and the acid diacetylated form were identified as well as traces of monoacetylated species. [formula]
To verify whether the ester or the glutaric acid which may be released following hydrolysis during the fermentation were toxic, 200 ml cultures were set up in one litre shaking flasks at 200 rpm. After 48 hours glutaric acid was added; 0, 10 or 100 %, the latter corresponding to the maximum amount of glutaric acid after hydrolysis of 30 g/l dodecyl glutarate (which equals the total amount of substrate added for synthesis). Eight days after the initial addition of glutaric acid the fermentation was stopped. […] It is therefore concluded that the toxicity of dodecyl glutarate is due to the product itself, rather than to hydrolysis products.
Taking into account the above results, a new experiment was set up in a Biostat B5 containing 3 litre medium to which 4g/l rapeseed oil was added in order to avoid toxic effects during the growth phase. From 48 hours onwards small portions of dodecyl glutarate, ester T0 in table 3 were added daily, totalling 145.5 gram during 7 days. Dodecyl glutarate has the same apparent chain length as stearic acid. After the last addition on day 8, the fermentation was run for another 48 hour and terminated 240 hours after the start. The fermentor was operated at 800 rpm mixing speed, 30°C and 1 vvm aeration, always assuring far higher oxygen concentrations than the 15% or less described in US6433152. After 140 hours the initial glucose was almost completely consumed and an additional 43 g/l was added. The pH was kept at 3.5 with 5 M NaOH and the oxygen saturation was varied between 70 and 85% during the production phase, rising 10 to 20 hours after each addition, which indicated the substrate was more or less consumed. The number of CFU in the production phase remained at approximately 6.10^9/ml, the dry cell weight at about 15 g/l, both values being considerably lower than typical values for rapeseed oil fermentations with resp. […] After about 200 hours more and more yeast cells changed aspect from the normal round shape to a flattened shape. This forms an indication of the stress the cells were experiencing due to the product formed and or the decreasing glucose concentration. […]
A new T2 batch was produced with increased care to completely remove the solvent. This batch was not toxic, with the number of CFU remaining stable (above 10^9/ml) over time, independent of the substrate concentration.
Shakeflask experiments with decyl heptanoate (ester T10 in table 2) gave similar results, indicating high toxicity for the first ester batch. […] The mass spectrometric analysis after alkaline hydrolysis of sophorolipids obtained from T10 ester, other than the obvious de novo sophorolipids and hydroxy dodecanoic acid is summarized in table 6 below. […] Note that again methyl terminated sophorolipids as well as sophorolipids with surplus glucose units were identified as de novo synthesized products. For both esters the dissolved oxygen concentration never came below 40% and averaged 65% (T2) and 63% (T10). […]

[4] = shake flask, new/improved ester batch, solvent removed
[5] = shake flask, 10 or 100 % of the amount released from 30 g/l dodecyl glutarate, 8 days

With CCO [Ethanol] the “% active matter needed” value [1] was 26%.
With O=C(O)CCCCCCCC(=O)O [azelaic acid] the “MIC (lowest concentration which completely inhibits growth)” value [2] was 30%.
In the case of CCCCCCCCCCOC(=O)CCCCCC [decyl heptanoate], the substrate toxicity ([3]; shake flask, first ester batch) is reported as “high toxicity”, the “number of CFU” value ([3]; shake flask, improved batch, after reduction) is reported as 3 x 10^9 CFU/ml and the “number of CFU” value ([3]; shake flask, improved batch, before reduction) is reported as 6,5 x 10^9 CFU/ml. For the same compound, the substrate toxicity [3, 4] was “slightly toxic”.
With CCCCCCCCCCCCOC(=O)CCCC(=O)O [dodecyl glutarate, Dodecyl glutarate] the toxicity ([3]; Biostat B5 fermentor) was “moderate toxicity”, the “number of CFU in the production phase” value ([3]; Biostat B5 fermentor, 145.5 gram ester during 7 days) was “approximately 6.10^9 /ml” and the dry cell weight ([3]; Biostat B5 fermentor, production phase) was “about 15 g/l”. For the same compound, the “toxicity effect of the ester” value ([3]; shake flask fermentation) was “moderate toxicity effect”, the “number of colony forming units” value ([3]; shake flask, at the end of the experiment (day 10)) was ~1.10^9 /ml and the “number of colony forming units” value ([3]; shake flask, value before the drop (printed 'approx. 4', x 10^9 implied)) was “approx. 4 /ml”.
In the case of CCCCCCCCCCCCOC(=O)CCCC [dodecyl pentanoate], the “substrate concentration from which toxicity was shown” value ([3]; shake flask, first ester batch) is reported as at least 10 mM, the substrate toxicity ([3]; shake flask, first ester batch) is reported as “pronounced substrate toxicity” and the “number of CFU” value ([3]; shake flask, new batch, stable over time, independent of substrate concentration) is reported as “above 10^9 /ml”. The substrate toxicity [3, 4] was “not toxic”.
For O=C(O)CCCC(=O)O [glutaric acid, reference compound], the “growth in terms of colony forming units” value [3, 5] was “did not inhibit growth” and the “sophorolipid production by Candida bombicola” value [3, 5] was “nor did it lower the sophorolipid production”.
